Laboratory results published in the NIST ThermoML archive (doi:10.1016/j.jct.2015.08.040).
Numbers after ± are expanded uncertainties.

Test: xn = mol fraction of the nth substance listed
Details: 100 kPa, Liquid; for speed of sound: Frequency=2 MHz, Linear variable-path acoustic interferometer; for mass density: Vibrating tube method

CCOCCO [2-ethoxyethan-1-ol] + OCc1ccccc1
Details | mass density, 298.15 K [kg/m3] | mass density, 303.15 K [kg/m3] | mass density, 308.15 K [kg/m3] | mass density, 313.15 K [kg/m3] | mass density, 318.15 K [kg/m3] | speed of sound, 298.15 K [m/s] | speed of sound, 308.15 K [m/s]
x2 = 0 | 925.36 ± 4 | 920.72 ± 4 | 916.11 ± 4 | 911.47 ± 4 | 906.9 ± 4 | 1301.4 ± 8 | 1274.8 ± 7.9
x2 = 0.0793 | 936.7 ± 4 | 931.63 ± 4 | 926.88 ± 4 | 922.19 ± 4 | 917.52 ± 4 | 1320 ± 8 | 1291 ± 8
x2 = 0.1593 | 947.73 ± 4 | 942.59 ± 4 | 937.61 ± 4 | 932.97 ± 4 | 928.22 ± 4 | 1339 ± 8 | 1308 ± 8
x2 = 0.2401 | 958.4 ± 4 | 953.27 ± 4 | 948.33 ± 4 | 943.6 ± 4 | 938.75 ± 4 | 1358 ± 8 | 1325 ± 8
x2 = 0.3215 | 968.73 ± 4 | 963.72 ± 4 | 958.87 ± 4 | 954.15 ± 4 | 949.14 ± 4 | 1378 ± 8 | 1342 ± 8
x2 = 0.4037 | 978.84 ± 4 | 973.92 ± 4 | 969.17 ± 4 | 964.42 ± 4 | 959.34 ± 4 | 1399 ± 9 | 1360 ± 8
x2 = 0.4866 | 988.63 ± 4 | 983.76 ± 4 | 979.06 ± 4 | 974.35 ± 4 | 969.28 ± 4 | 1419 ± 9 | 1379 ± 8
x2 = 0.5703 | 998.17 ± 4 | 993.33 ± 4 | 988.65 ± 4 | 984.06 ± 4 | 979.07 ± 4 | 1440 ± 9 | 1398 ± 9
x2 = 0.6547 | 1007.45 ± 4 | 1002.6 ± 4 | 997.97 ± 4 | 993.39 ± 4 | 988.67 ± 4 | 1460 ± 9 | 1417 ± 9
x2 = 0.7398 | 1016.35 ± 4 | 1011.53 ± 4 | 1006.89 ± 4 | 1002.53 ± 4 | 998.04 ± 4 | 1480 ± 9 | 1437 ± 9
x2 = 0.8257 | 1024.9 ± 4 | 1020.21 ± 4 | 1015.71 ± 4 | 1011.52 ± 4 | 1007.24 ± 4 | 1499 ± 9 | 1456 ± 9
x2 = 0.9125 | 1033.23 ± 4 | 1028.71 ± 4 | 1024.47 ± 4 | 1020.44 ± 4 | 1016.45 ± 4 | 1517 ± 9 | 1476 ± 9

OCc1ccccc1 [benzenemethanol] + COCCO
Details | mass density, 298.15 K [kg/m3] | mass density, 303.15 K [kg/m3] | mass density, 308.15 K [kg/m3] | mass density, 313.15 K [kg/m3] | mass density, 318.15 K [kg/m3] | speed of sound, 298.15 K [m/s] | speed of sound, 308.15 K [m/s]
x1 = 0.0979 | 974.27 ± 4 | 969.06 ± 4 | 963.98 ± 4 | 958.77 ± 4 | 953.4 ± 4 | 1359 ± 8 | 1319 ± 8
x1 = 0.1928 | 985.51 ± 4 | 980.26 ± 4 | 975.04 ± 4 | 969.7 ± 4 | 964.14 ± 4 | 1377 ± 8 | 1337 ± 8
x1 = 0.2847 | 995 ± 4 | 989.74 ± 4 | 984.55 ± 4 | 979.32 ± 4 | 973.82 ± 4 | 1395 ± 9 | 1354 ± 8
x1 = 0.3739 | 1003.23 ± 4 | 998.13 ± 4 | 992.96 ± 4 | 987.81 ± 4 | 982.44 ± 4 | 1413 ± 9 | 1371 ± 8
x1 = 0.4604 | 1010.46 ± 4 | 1005.46 ± 4 | 1000.42 ± 4 | 995.25 ± 4 | 990.02 ± 4 | 1430 ± 9 | 1388 ± 8
x1 = 0.5443 | 1016.87 ± 4 | 1011.91 ± 4 | 1006.93 ± 4 | 1001.91 ± 4 | 996.67 ± 4 | 1447 ± 9 | 1405 ± 9
x1 = 0.6258 | 1022.61 ± 4 | 1017.7 ± 4 | 1012.79 ± 4 | 1007.81 ± 4 | 1002.65 ± 4 | 1463 ± 9 | 1421 ± 9
x1 = 0.7049 | 1027.69 ± 4 | 1022.84 ± 4 | 1018.04 ± 4 | 1013.09 ± 4 | 1007.91 ± 4 | 1478 ± 9 | 1437 ± 9
x1 = 0.7818 | 1032.17 ± 4 | 1027.39 ± 4 | 1022.66 ± 4 | 1017.74 ± 4 | 1012.63 ± 4 | 1493 ± 9 | 1452 ± 9
x1 = 0.8565 | 1035.9 ± 4 | 1031.28 ± 4 | 1026.79 ± 4 | 1022.07 ± 4 | 1017.05 ± 4 | 1507 ± 9 | 1467 ± 9
x1 = 0.9292 | 1038.94 ± 4 | 1034.49 ± 4 | 1030.32 ± 4 | 1025.92 ± 4 | 1021.35 ± 4 | 1521 ± 9 | 1482 ± 9
x1 = 1 | 1041.05 ± 4 | 1037.15 ± 4 | 1033.32 ± 4 | 1029.46 ± 4 | 1025.59 ± 4 | 1534.5 ± 9.3 | 1496 ± 9.1
